Entries after “also recorded” stand apart in the source; their conditions may differ.
Legend:
[1] = system: Src; experiment: Cortactin tyrosine phosphorylation in pancreatic acini suprastimulated with 10 nM CCK (immunoprecipitation, 4G10 western blot); format: cell-based, mice
Procedure: (§1) Acini were harvested in a buffer containing 20 mM HEPES (pH 7.4), 120 mM NaCl, 5 mM KCl, 1 mM MgCl2, 1 mM CaCl2, 10 mM glucose, 10 mM sodium pyruvate, 0.1% bovine serum albumin, and 0.01% soybean trypsin inhibitor with 100 units/mL collagenase, as described elsewhere (Torgerson and McNiven, J. […] Viability prior to use was >95% by trypan blue exclusion. The harvested acini were used as described elsewhere (Torgerson and McNiven, J. Cell Sci., 111 (Pt. 19):2911-22 (1998)).
(§2) Acini or tissue were homogenized in a buffer containing 50 mM Tris (pH 7.2), 150 mM NaCl, 0.5 mM EDTA, 1 mM EGTA, 2 mM DTT, 1 mM sodium orthovanadate, 25 mM NaF, and 1% NP-40, using a protease inhibitor cocktail (Complete; Cat. # 1873580; Roche) to prevent proteolysis. […] After Western blotting using appropriate protocols and dilutions of antibodies ( 1/100000 for AB3, 1/1000 for 4G10, 1/500 for SC-18, 1/1000 for PY416, 1/5000 for Yes, 1/200 for H-12 (c-Src), 1/200 for fyn, and 1/200 for Lyn) as recommended by the manufacturer, band intensity was quantified using Adobe Photoshop 6.0, and backgrounds were subtracted for the appropriate lanes. […] Quantification was performed from two or more experiments. […]

[2] = system: pancreatic acini; experiment: Basal relocation of cortactin and actin in suprastimulated acini (immunofluorescence); format: cell-based, mice; details: 10 nM CCK
Procedure: as §1
(§3) Acini were plated on plain glass coverslips as described elsewhere (Torgerson and McNiven, J. Cell Sci., 111 (Pt. 19):2911-22 (1998)), fixed with 2% paraformaldehyde, and permeabilized with 0.6% Triton X-100. The acini were then blocked with 5% normal goat serum followed by incubation with the primary antibodies (4F11 diluted 1/1000, SC-18 diluted 1/300, or anti-Yes diluted 1/1000) for one hour at room temperature followed by washing and incubation with secondary antibodies ( 1/500) with or without rhodamine phalloidin (100 nM) for 30 minutes. The acini were then washed and mounted using Prolong gold. Acini with 6-12 cells were randomly chosen for imaging. The number of blebs was counted along with the number of cells, and expressed as bleb number per 100 cells. The final number expressed as mean±SEM was from at least three different experiments. […]

[3] = system: pancreatic acini; experiment: Suprastimulation-induced blebbing of acini (bleb number per 100 cells); format: cell-based, mice; details: 10 nM CCK, 94.2±4.1% without inhibitor, mean±SEM
Procedure: as §1, §3

[4] = system: Src-cortactin complex; experiment: Dissociation of the Src-cortactin complex after 10 nM CCK (Src immunoprecipitation, blot for cortactin); format: cell-based, mice; details: 2 minutes, PP2 pre-incubation
Procedure: Acini were harvested in a buffer containing 20 mM HEPES (pH 7.4), 120 mM NaCl, 5 mM KCl, 1 mM MgCl2, 1 mM CaCl2, 10 mM glucose, 10 mM sodium pyruvate, 0.1% bovine serum albumin, and 0.01% soybean trypsin inhibitor with 100 units/mL collagenase, as described elsewhere (Torgerson and McNiven, J. Cell Sci., 111 (Pt. 19):2911-22 (1998)) were filtered through a 70 μm mesh and kept at 37° C. for two hours before use during which time these were pre-incubated with 20 μM of inhibitors (PP2 or SU6656), if necessary. Viability prior to use was >95% by trypan blue exclusion. The harvested acini were used as described elsewhere (Torgerson and McNiven, J. Cell Sci., 111 (Pt. 19):2911-22 (1998)).
as §2

[5] = system: suprastimulation-induced pancreatitis; experiment: Caerulein-induced pancreatitis in vivo; set-up: species or system mice
Text: Male 100-120 gm Sprauge Dawley (Harlan Laboratories, Indianapolis, Ind.) mice that were housed and fed under standard conditions were used. Caerulein, the CCK analog, was obtained from Research Plus (Bayonne, N.J.). Antibodies to phosphotyrosine (4G10) and cortactin (4F11) antibodies were obtained from Upstate (Charlottesville, Va.). Pan Src antibody (SC-18), Fyn (SC-16) and c-Src antibody H-12 were obtained from Santa Cruz (Santa Cruz, Calif.), and active Src (PY416), Yes and Lyn antibodies were obtained from Transduction Labs (Lexington, Ky.). Polyclonal antibody to cortactin (AB3) was produced as described elsewhere (Cao et al., Mol. Cell Biol., 23(6):2162-2170 (2003)). Secondary antibodies for immunofluorescence (Alexa 488 and Alexa 594) and Prolong gold were obtained from Invitrogen Corporation (Carlsbad, Calif.). Secondary antibodies for western blotting (goat anti-rabbit and goat anti-mouse HRP) were obtained from Affinity Bioreagents (Golden, Colo.). Collagenase type IV was obtained from Worthington Biochemical Corporation (Lakewood, N.J.). PP2 and SU6656 were obtained from Calbiochem (San Diego, Calif.) and were dissolved as a 1000× stock in DMSO. All other reagents were purchased from Sigma.
Animals (6 animals in each group) were given a single intraperitoneal injection of saline (control) or caerulein (20 μg/kg) in saline as described elsewhere (Bhagat et al., Gastroenterology, 122(1): 156-165 (2002)). After 6 hours, blood and tissue samples were harvested and frozen or fixed in 4% formaldehyde. When used, PP2 was dissolved in DMSO and given at a dose of 3 mg/kg in a 0.1-mL volume intraperitoneally 30 minutes before caerulein. Animals pretreated with vehicle were given DMSO only.
Five μm sections of paraffin-embedded pancreas and lung were stained with hematoxylin/eosin (H&E). For immunohistochemistry of pancreas, 5 μm sections were made from OCT embedded tissue, fixed with 4% paraformaldehyde, and immunostained as described herein. Serum amylase activity was measured colorimetrically using the Phadebas assay (Pharmacia Diagnostics, Portage, Mich.). Edema was measured by subtracting the dry weight from the wet weight and presented as a percentage of wet weight.
The results reported represent the mean±SEM of values obtained from three or more experiments and compared using Student's t test when the data consisted of only two groups or ANOVA when comparing three or more groups. If ANOVA indicated a significant difference, the data were analyzed by using Tukey's method as a post-hoc test for the difference between groups. A p value of 0.05 was considered significant.

| SMILES | cortactin phosphorylation ([1]; acini pre-incubated with SU6656 at 10 μM) | basal relocation of cortactin and actin ([2]; SU6656 10 μM) | blebbing ([3]; SU6656 10 μM) | cortactin phosphorylation ([1]; acini pre-incubated with PP2 at 20 μM) | dissociation of the Src-cortactin complex [4] | basal relocation of cortactin and actin ([2]; PP2 20 μM) | blebbing ([3]; PP2 20 μM) | cortactin phosphorylation in pancreas in vivo ([5]; 3 mg/kg PP2 intraperitoneally 30 minutes before 20 μg/kg caerulein, preliminary data) | increase in serum amylase over controls ([5]; PP2 3 mg/kg ip 30 minutes before caerulein 20 μg/kg, 6 hours, CER+Veh 4.8±0.5 fold, p <0.02) | pancreatic edema as measured by water content ([5]; PP2 3 mg/kg ip 30 minutes before caerulein 20 μg/kg, 6 hours, CER+Veh 81.1±0.8%, control 75.1±0.5%, p<0.05) | morphology of the pancreas (vacuolation, blebbing-like fragmentation, apoptosis, interstitial edema, inflammatory cells; H&E) ([5]; PP2 3 mg/kg ip 30 minutes before caerulein, 6 hours) | basolateral relocation of actin and cortactin in pancreas cryosections ([5]; PP2 3 mg/kg prophylactically) |
| --- | --- | --- | --- | --- | --- | --- | --- | --- | --- | --- | --- | --- |
| CN(C)S(=O)(=O)c1ccc2c(c1)/C(=C/c1cc3c([nH]1)CCCC3)C(=O)N2 [SU6656] | completely prevented cortactin phosphorylation | prevented the basal relocation of cortactin | 21.0±6.0% | – | – | – | – | – | – | – | – | – |
| CC(C)(C)n1nc(-c2ccc(Cl)cc2)c2c(N)ncnc21 [PP2] | – | – | – | completely prevented cortactin phosphorylation | prevented | prevented this basal relocation of cortactin; also recorded: prevented the basal relocation of cortactin | 16.9±6.0% | adequate to inhibit cortactin phosphorylation | 2.4±0.2 fold | 76.7±0.6% | dramatically prevented these phenomena | prevented this basolateral relocation |
